According to paper PMC8921294, “Inhibition of mitochondrial LonP1 protease by allosteric blockade of ATP binding and hydrolysis via CDDO and its derivatives” (The Journal of Biological Chemistry, 2022):
Substitutions are numbered along the chain they refer to.

Key:
LonP1 C576S = target: T1, LonP1 C576S (Homo sapiens, UniProt P36776, C576S); test: Endpoint ATPase assay, LonP1 C576S; assay type: biochemical
T1 construct: hexa-histidine (N); made in house; host or cells: Rosetta 2 E. coli
T1 sequence (P36776 68-959 C576S): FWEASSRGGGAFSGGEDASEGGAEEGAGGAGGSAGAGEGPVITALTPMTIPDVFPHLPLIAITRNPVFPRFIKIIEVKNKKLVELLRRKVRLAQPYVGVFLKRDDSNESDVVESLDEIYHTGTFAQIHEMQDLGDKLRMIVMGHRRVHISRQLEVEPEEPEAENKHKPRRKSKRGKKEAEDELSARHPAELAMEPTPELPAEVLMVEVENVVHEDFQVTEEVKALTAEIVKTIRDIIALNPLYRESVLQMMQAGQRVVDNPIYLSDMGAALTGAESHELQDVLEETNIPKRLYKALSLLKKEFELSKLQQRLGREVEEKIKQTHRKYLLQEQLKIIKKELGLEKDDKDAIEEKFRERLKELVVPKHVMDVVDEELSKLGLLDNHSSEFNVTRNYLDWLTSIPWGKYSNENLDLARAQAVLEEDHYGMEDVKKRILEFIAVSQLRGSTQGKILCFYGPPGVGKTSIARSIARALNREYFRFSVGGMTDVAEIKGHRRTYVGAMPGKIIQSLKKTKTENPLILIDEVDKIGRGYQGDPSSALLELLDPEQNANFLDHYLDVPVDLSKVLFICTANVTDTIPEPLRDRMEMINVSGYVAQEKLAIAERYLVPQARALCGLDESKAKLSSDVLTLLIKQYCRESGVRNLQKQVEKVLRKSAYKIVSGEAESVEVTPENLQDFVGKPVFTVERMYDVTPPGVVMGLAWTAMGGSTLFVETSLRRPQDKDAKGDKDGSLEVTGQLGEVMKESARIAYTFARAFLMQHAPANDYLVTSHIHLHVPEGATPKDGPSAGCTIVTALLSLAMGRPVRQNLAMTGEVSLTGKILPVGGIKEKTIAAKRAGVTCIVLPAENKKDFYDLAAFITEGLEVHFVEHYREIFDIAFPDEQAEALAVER
Experimental: (§1) Human mitochondrial LonP1 and mutants lacking the predicted mitochondrial targeting sequence were fused to an N-terminal hexa-histidine affinity tag, expressed in Rosetta 2 E. Coli, and purified using a nickel agarose column as previously described ([72]) and protein concentration and buffer exchange carried out using Amicon Ultra centrifugal filtration. LonP1 mutant constructs were obtained from the PCR-based QuikChange Site-Directed Mutagenesis Kit.
(§2) ADP-Glo (Promega) assays were performed according to the manufacturer's protocols. Purified wild-type or mutant LonP1 (400 nM monomer), the 26S proteasome (3 nM), or no enzyme controls were preincubated in 96-well plates (60 min, 25 °C) with ten different concentrations of CDDO and its derivatives, TP-82, enoxolone (5 μM) or DMSO vehicle control in buffer (40 mM Tris-HCl (pH 7.5), 20 mM MgCl2, 0.1 mg/ml BSA and 5% DMSO). The 26S and 20S proteasome were also assayed at 0, 0.75, 1.5, 3, 6, and 12 nM in the absence of CDDO derivatives. […] Assay reagents were used to quench further ATPase activity and generate luminescence signals proportional to the concentration of ADP formed. Background (no enzyme control) luminescence values were subtracted, and resultant values were reported as a percentage of the no drug control (100%). […]

LonP1 C637V = target: T2, LonP1 C637V (Homo sapiens, UniProt P36776, C637V); test: Endpoint ATPase assay, LonP1 C637V; assay type: biochemical
T2 construct: hexa-histidine (N); made in house; host or cells: Rosetta 2 E. coli
T2 sequence (P36776 68-959 C637V): T1 sequence (P36776 68-959 C576S) with S509C, C570V
Experimental: as §1, §2

[1] = end-point ATPase assay, N = 1, read-out: CDDO IC50

Fold increase in inhibition compared with WT (LonP1 C576S): 1.2
IC50 (LonP1 C576S; [1]): 11.9 µM
Fold increase in inhibition compared with WT (LonP1 C637V): 3.8
IC50 (LonP1 C637V; [1]): 3.7 µM
Compound: CC1(C)CC[C@]2(C(=O)O)CC[C@]3(C)[C@H](C(=O)C=C4[C@@]5(C)C=C(C#N)C(=O)C(C)(C)[C@@H]5CC[C@]43C)[C@@H]2C1 [CDDO, 2-cyano-3,12-dioxooleana-1,9(11)-dien-28-oic acid]
